Measurements as given in ChEMBL document CHEMBL5150003, “Why All the Fury over Furin?” (J Med Chem, 2022).
Numbered stars: 1 amine (or outer) side, 2 acyl side, 3 side chain; on linkers, the order of the positions; unused ones are H or OH. Bridge positions count the residues as written; N and C are the ends. Square brackets hold non-standard residues; d marks the D form. Peptide text beside a SMILES is read from it. * marks the point of attachment. NH(4-amidinobenzyl) = N=C(N)c1ccc(CN*)cc1; 2Nal = N[C@@H](Cc1ccc2ccccc2c1)C(=O)O; Glutaryl = O=C(CCCC(=O)[*:2])[*:1]; Suc = O=C(CCC(=O)[*:2])[*:1]; X3 = NC(N)=NC/C=C/CN*

Tests used:
Furin [1] = target: T1, Furin (Homo sapiens, UniProt P09958); assay: Inhibition of furin (unknown origin)
T1 sequence (P09958 whole entry): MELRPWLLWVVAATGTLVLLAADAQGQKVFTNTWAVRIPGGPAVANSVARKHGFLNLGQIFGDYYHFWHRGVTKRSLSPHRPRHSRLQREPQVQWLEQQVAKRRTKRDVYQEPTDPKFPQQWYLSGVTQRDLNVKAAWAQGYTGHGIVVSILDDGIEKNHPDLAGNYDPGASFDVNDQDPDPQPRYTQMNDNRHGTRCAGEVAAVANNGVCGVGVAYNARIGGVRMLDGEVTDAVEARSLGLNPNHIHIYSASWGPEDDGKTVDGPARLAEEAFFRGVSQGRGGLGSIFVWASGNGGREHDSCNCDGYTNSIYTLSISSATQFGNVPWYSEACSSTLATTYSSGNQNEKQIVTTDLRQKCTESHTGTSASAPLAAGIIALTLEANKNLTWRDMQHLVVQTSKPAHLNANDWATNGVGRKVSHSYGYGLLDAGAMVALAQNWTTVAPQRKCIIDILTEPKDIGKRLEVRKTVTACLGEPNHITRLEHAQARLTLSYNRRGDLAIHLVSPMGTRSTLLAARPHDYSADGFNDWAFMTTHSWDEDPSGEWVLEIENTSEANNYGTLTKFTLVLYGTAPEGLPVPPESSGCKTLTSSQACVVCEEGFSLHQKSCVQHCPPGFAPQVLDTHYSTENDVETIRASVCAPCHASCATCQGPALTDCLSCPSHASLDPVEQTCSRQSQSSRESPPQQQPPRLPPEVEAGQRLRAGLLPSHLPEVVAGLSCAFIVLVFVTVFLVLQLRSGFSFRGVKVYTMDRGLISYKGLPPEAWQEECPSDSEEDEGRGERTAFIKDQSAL

Furin [2] = target: T1, Furin; assay: Inhibition of furin (unknown origin) using Pyr-RTKR-MCA as substrate incubated for 30 mins and measured by FRET assay
RAW264.7 = assay: Protective activity against Anthrax toxin-induced cytotoxicity in mouse RAW264.7 cells measured by WST-1 method; assay type: functional; conditions: dose 100 µM
[3] = Inhibition of migration of human HT-1080 cells at 100 uM measured by calcein AM/ethidium homodimer (EthD-1) staining method; assay type: functional
[4] = Cytotoxicity against human HT-1080 cells assessed as cell viability at 100 uM and measured after 2 hrs by WST-1 method; assay type: toxicity, cell-based; conditions: read-out: Activity
[5] = Cytotoxicity against chinese hamster CHO-DG44 cells assessed as cell viability at 100 uM and measured after 2 hrs by WST-1 method; assay type: toxicity, cell-based, Cricetulus griseus; conditions: read-out: Activity
[6] = Protective activity against Pseudomonas aeruginosa exotoxin A-induced cytotoxicity in chinese hamster CHO-DG44 cells measured by WST-1 method; assay type: functional, Cricetulus griseus; conditions: dose 100 µM
Furin [7] = target: T1, Furin; assay: Inhibition of Recombinant vaccinia-expressed furin (unknown origin) using Pyr-RTKR-MCA as substrate and measured by fluorescence based assay
Furin [8] = target: T1, Furin; assay: Inhibition of furin in human U2OS cells measured after 24 hrs by fluorescence assay; assay type: cell-based
Mus musculus [9] = assay: Antifibrotic activity against bleomycin-induced mouse lung fibrosis model assessed as inhibition of TGF-beta secretion in lung at 10 mg/kg, po administered once daily; assay type: functional
Mus musculus [10] = assay: Antifibrotic activity against bleomycin-induced mouse lung fibrosis model assessed as inhibition of hydroxyproline content in lung at 10 mg/kg, po administered once daily; assay type: functional
[11] = Stability in mouse plasma assessed as half-life; assay type: ADME, cell-free

## N=C(N)NCCC[C@@H]1NC(=O)CCCC(=O)NCCCC[C@@H](C(=O)N[C@@H](CCCNC(=N)N)C(=O)NCc2ccc(C(=N)N)cc2)NC(=O)[C@H](CCCNC(=N)N)NC1=O (RRKR-{NH(4-amidinobenzyl)}; linker N-3 via Glutaryl)
Furin [1]
  Ki: 0.504 nM

## N=C(N)N[C@H]1C[C@@H](NC(=N)N)[C@H](Oc2ccc(C(=N)N)cn2)C[C@@H]1Oc1ccc(C(=N)N)cn1
Furin [2]
  Ki: 20 nM

## N=C(N)Nc1ccc(O[C@H]2C[C@@H](Oc3ccc(NC(=N)N)cc3NC(=N)N)[C@H](NC(=N)N)C[C@@H]2NC(=N)N)c(NC(=N)N)c1
RAW264.7
  Activity: >80%
[3]
  inhibition at 100 µM: 60%
[4]
  viability at 2 h, 100 µM: > 90%
[5]
  viability at 2 h, 100 µM: > 90%
[6]
  Activity: >70%

## N=C(N)Nc1ccc(OC2CCCC(Oc3ccc(NC(=N)N)cc3)C2)cc1 (stereo not drawn)
RAW264.7
  Activity: 30%
Furin [7]
  Ki: 5500 nM
[3]
  inhibition at 100 µM: 40%
[4]
  viability at 2 h, 100 µM: 70%
[5]
  viability at 2 h, 100 µM: 70%

## N=C(N)Nc1ccc(OCCCOc2ccc(NC(=N)N)cc2NC(=N)N)c(NC(=N)N)c1
RAW264.7
  Activity: 50%
Furin [7]
  Ki: 2700 nM
[3]
  inhibition at 100 µM: < 40%
[4]
  viability at 2 h, 100 µM: > 90%
[5]
  viability at 2 h, 100 µM: > 90%
[6]
  Activity: <30%

## CS(=O)(=O)CCCN1CCN(c2ncc(Oc3cc(CN4CCC(CC(=O)O)CC4)cc(-c4cc(Cl)cc(Cl)c4)n3)cn2)CC1
Furin [8]
  pXC50: 7.6
Mus musculus [9]
  inhibition in vivo at 10 mg/kg: 40%
Mus musculus [10]
  inhibition in vivo at 10 mg/kg: -1%

## N=C(N)Nc1ccc(O[C@H]2C[C@@H](Oc3ccc(NC(=N)N)c4ccccc34)[C@H](NC(=N)N)C[C@@H]2NC(=N)N)cc1
RAW264.7
  Activity: 90%
[4]
  viability at 2 h, 100 µM: > 50%
[5]
  viability at 2 h, 100 µM: > 50%
[6]
  Activity: 60%

## CN1CCN(c2cnc(Oc3cc(CN4CCC(CC(=O)O)CC4)cc(-c4cc(Cl)cc(Cl)c4)n3)cn2)CC1
Furin [8]
  pXC50: 7.3
Mus musculus [9]
  inhibition in vivo at 10 mg/kg: 22%
Mus musculus [10]
  inhibition in vivo at 10 mg/kg: 4%

## CC(C)(C)[C@@H]1NC(=O)[C@H](CCCNC(=N)N)NC(=O)[C@H](CCCNC(=N)N)NC(=O)[C@@H](N)CCCCNC(=O)Cc2ccc(cc2)CNC(=O)CCCC(=O)NCCCC[C@@H](C(=O)NCc2ccc(C(=N)N)cc2)NC1=O
Furin [1]
  Ki: 1.17 nM

## CC(C)(C)[C@@H]1NC(=O)[C@H](CCCNC(N)N)NC(=O)[C@H](CCCNC(=N)N)NC(=O)[C@@H](N)CCCCNC(=O)CCN2CCN(CCC(=O)NCCCC[C@@H](C(=O)NCc3ccc(C(=N)N)cc3)NC1=O)CC2
Furin [1]
  Ki: 0.491 nM

## N=C(N)c1ccc(Oc2cccc(Oc3ccc(C(=N)N)cc3)c2)cc1
Furin [2]
  Ki: 100 nM

## O=C(O)CC1CCN(Cc2cc(Oc3cnc(N4CCN(CCO)CC4)nc3)nc(-c3cc(Cl)cc(Cl)c3)c2)CC1
Furin [8]
  pXC50: 7.6
Mus musculus [9]
  inhibition in vivo at 10 mg/kg: 31%
Mus musculus [10]
  inhibition in vivo at 10 mg/kg: 11%

## CC(=O)N[C@@H](CCCN=C(N)N)C(=O)N[C@@H](C)C(=O)N[C@@H](CCCN=C(N)N)C(=O)N[C@@H](CCCN=C(N)N)C(=O)N[C@@H](CCCN=C(N)N)C(=O)N[C@@H](CCCCN)C(=O)N[C@@H](CCCCN)C(=O)NC/C=C/CN=C(N)N (Ac-RARRRKK-X3)
[11]
  half-life: 3.3 h
Furin [1]
  Ki: 7 nM

## C[C@@H](O)CN1CCN(c2ncc(Oc3cc(CN4CCC(CC(=O)O)CC4)cc(-c4cc(Cl)cc(Cl)c4)n3)cn2)CC1
Furin [8]
  pXC50: 7.7
Mus musculus [9]
  inhibition in vivo at 10 mg/kg: 23%
Mus musculus [10]
  inhibition in vivo at 10 mg/kg: 16%

## N=C(N)NCCC[C@@H]1NC(=O)[C@H](Cc2ccc3ccccc3c2)NC(=O)[C@H](Cc2ccccc2)NC(=O)CCC(=O)NCCCC[C@@H](C(=O)N[C@@H](CCCCN)C(=O)NCc2ccc(C(=N)N)cc2)NC(=O)[C@H](CCCNC(=N)N)NC(=O)[C@H](CCCNC(=N)N)NC1=O (F[2Nal]RRRKK-{NH(4-amidinobenzyl)}; linker N-6 via Suc)
Furin [1]
  Ki: 0.618 nM

## N=C(N)NCCC[C@H](NC(=O)[C@@H]1CCCCNC(=O)CCC(=O)N[C@@H](Cc2ccccc2)C(=O)N[C@@H](Cc2ccc3ccccc3c2)C(=O)N[C@@H](CCCNC(=N)N)C(=O)N[C@@H](CCCNC(=N)N)C(=O)N[C@@H](CCCNC(=N)N)C(=O)N[C@@H](CCCNC(=N)N)C(=O)N1)C(=O)NCc1ccc(C(=N)N)cc1 (F[2Nal]RRRRKR-{NH(4-amidinobenzyl)}; linker N-7 via Suc)
Furin [1]
  Ki: 0.0538 nM

## N=C(N)c1ccc(OC2CCCC(Oc3ccc(C(=N)N)cc3)C2)cc1 (stereo not drawn)
Furin [2]
  Ki: 1000 nM

## CC(C)(C)[C@H](NC(=O)[C@H](CCCNC(=N)N)NC(=O)Cc1ccc(CN)cc1)C(=O)N[C@@H](CCCNC(=N)N)C(=O)NCc1ccc(C(=N)N)cc1
Furin [1]
  Ki: 0.0224 nM

## Cc1cc(O[C@H]2C[C@@H](Oc3ccc(C(=N)N)c(C)c3)[C@H](NC(=N)N)C[C@@H]2NC(=N)N)ccc1C(=N)N
Furin [2]
  Ki: 10 nM

## N=C(N)Nc1ccc(O[C@H]2C[C@@H](Oc3ccc(NC(=N)N)cc3)[C@H](NC(=N)N)C[C@@H]2NC(=N)N)cc1
RAW264.7
  Activity: >90%
[4]
  viability at 2 h, 100 µM: > 90%
[5]
  viability at 2 h, 100 µM: > 90%
[6]
  Activity: >20%
